Results as given in patent US12514832B2, “Methods for using low-dose colchicine after myocardial infarction” (INSTITUT DE CARDIOLOGIE DE MONTREAL, priority 2019, dated 2026).
Like-named read-outs stand apart in the source and are kept apart here.

Test system: rs6916345 (LINC01108/JARID2, chromosome 6); rs10128117 (SEPHS1, chromosome 10)
Details: for HR, gastrointestinal disorders / coef, gastrointestinal disorders / Coefficient, genetic association with gastrointestinal disorders / HR (hazard ratio), genetic association with gastrointestinal disorders: colchicine treatment arm
[1] = colchicine arm, males + females, on-treatment pgx population
[2] = rs535968 effect allele C vs T, males + females
[3] = rs615497 effect allele G vs A, males + females
[4] = rs825610 effect allele C vs T, males + females
[5] = rs2253619 chr 10, EA T vs NEA C
[6] = rs2253619 effect allele T vs C, males + females
[7] = rs2476986 effect allele T vs G, males + females
[8] = rs2783648 effect allele A vs T, males + females
[9] = rs7894075 effect allele C vs A, males + females
[10] = rs7901525 effect allele A vs C, males + females
[11] = rs7902331 effect allele T vs C, males + females
[12] = rs7916194 effect allele T vs A, males + females
[13] = rs7917549 effect allele A vs G, males + females
[14] = rs7919509 effect allele C vs T, males + females
[15] = rs9423893 effect allele A vs G, males + females
[16] = rs10128117 chr 10, EA A vs NEA T
[17] = rs10128117 effect allele A vs T, males + females
[18] = rs10906346 effect allele A vs G, males + females
[19] = rs11258319 effect allele T vs C, males + females
[20] = rs12210439 chr 6, EA A vs NEA G
[21] = rs41291319 effect allele A vs G, males + females
[22] = rs41291321 effect allele C vs G, males + females
[23] = rs58260827 effect allele CA vs C, males + females
[24] = rs61851591 chr 10, EA A vs NEA C
[25] = rs61851591 effect allele A vs C, males + females
[26] = rs61851592 chr 10, EA T vs NEA C
[27] = rs61851592 effect allele T vs C, males + females
[28] = rs61851593 chr 10, EA C vs NEA T
[29] = rs61851593 effect allele C vs T, males + females
[30] = rs61851598 effect allele A vs G, males + females
[31] = rs61851599 effect allele T vs C, males + females
[32] = rs70993041 chr 6, EA TAA vs NEA T
[33] = rs74795203 chr 10, EA G vs NEA A
[34] = rs74795203 effect allele G vs A, males + females
[35] = rs77006996 chr 10, EA T vs NEA C
[36] = rs77006996 effect allele T vs C, males + females
[37] = rs117874450 effect allele T vs C, males + females
[38] = rs552621122 effect allele A vs ATT, males + females

COc1cc2c(c(OC)c1OC)-c1ccc(OC)c(=O)cc1[C@@H](NC(C)=O)CC2 [Colchicine, colchicine]
Gastrointestinal disorders, hr per effect allele, rs857414 (G vs T) [1]: 0.6
Gastrointestinal disorders, hr per effect allele, rs2327827 (G vs A) [1]: 0.5
Gastrointestinal disorders, hr per effect allele, rs4620126 (G vs A) [1]: 0.6
Gastrointestinal disorders, hr per effect allele, rs6459368 (A vs G) [1]: 0.5
Gastrointestinal disorders, hr per effect allele, rs6903188 (G vs A) [1]: 0.6
Gastrointestinal disorders, hr per effect allele, rs6918045 (T vs C) [1]: 0.6
Gastrointestinal disorders, hr per effect allele, rs6920905 (C vs T) [1]: 0.5
Gastrointestinal disorders, hr per effect allele, rs7747013 (G vs A) [1]: 0.5
Gastrointestinal disorders, hr per effect allele, rs7751771 (C vs T) [1]: 0.5
Gastrointestinal disorders, hr per effect allele, rs7764937 (C vs G) [1]: 0.5
Gastrointestinal disorders, hr per effect allele, rs9349955 (T vs C) [1]: 0.5
Gastrointestinal disorders, hr per effect allele, rs9358042 (T vs C) [1]: 0.6
Gastrointestinal disorders, hr per effect allele, rs9358044 (T vs A) [1]: 0.5
Gastrointestinal disorders, hr per effect allele, rs9370772 (T vs C) [1]: 0.6
Gastrointestinal disorders, hr per effect allele, rs9382993 (C vs T) [1]: 0.5
Gastrointestinal disorders, hr per effect allele, rs9464702 (G vs A) [1]: 0.6
Gastrointestinal disorders, hr per effect allele, rs9476615 (T vs C) [1]: 0.6
Gastrointestinal disorders, hr per effect allele, rs9476616 (G vs C) [1]: 0.5
Gastrointestinal disorders, hr per effect allele, rs12210439 (A vs G) [1]: 0.6
Gastrointestinal disorders, hr per effect allele, rs70993041 (TAA vs T) [1]: 0.5
times more likely to have reported gastrointestinal disorders with colchicine than with placebo (genotype A/A at rs6916345): 2.4 times
less likely to have reported gastrointestinal disorders with colchicine than with placebo (genotype G/G at rs6916345): 57%
times more likely to have reported gastrointestinal disorders with colchicine than with placebo (genotype T/A at rs10128117): 3.7 times
HR, gastrointestinal disorders [2]: 2.3
coef, gastrointestinal disorders [2]: 0.8496
HR, gastrointestinal disorders [3]: 2.4
coef, gastrointestinal disorders [3]: 0.8683
HR, gastrointestinal disorders [4]: 2.4
coef, gastrointestinal disorders [4]: 0.8604
Coefficient, genetic association with gastrointestinal disorders [5]: 0.921
HR (hazard ratio), genetic association with gastrointestinal disorders [5]: 2.51
HR, gastrointestinal disorders [6]: 2.5
coef, gastrointestinal disorders [6]: 0.9205
Coefficient, genetic association with gastrointestinal disorders (rs2327827 chr 6, EA G vs NEA A): −0.620
HR (hazard ratio), genetic association with gastrointestinal disorders (rs2327827 chr 6, EA G vs NEA A): 0.54
HR, gastrointestinal disorders [7]: 2.4
coef, gastrointestinal disorders [7]: 0.8717
HR, gastrointestinal disorders [8]: 2.4
coef, gastrointestinal disorders [8]: 0.8625
Coefficient, genetic association with gastrointestinal disorders (rs6459368 chr 6, EA A vs NEA G): −0.602
HR (hazard ratio), genetic association with gastrointestinal disorders (rs6459368 chr 6, EA A vs NEA G): 0.55
Coefficient, genetic association with gastrointestinal disorders (rs6903188 chr 6, EA G vs NEA A): −0.598
HR (hazard ratio), genetic association with gastrointestinal disorders (rs6903188 chr 6, EA G vs NEA A): 0.55
Coefficient, genetic association with gastrointestinal disorders (rs6916345 chr 6, EA G vs NEA A): −0.639
HR (hazard ratio), genetic association with gastrointestinal disorders (rs6916345 chr 6, EA G vs NEA A): 0.53
Coefficient, genetic association with gastrointestinal disorders (rs6918045 chr 6, EA T vs NEA C): −0.598
HR (hazard ratio), genetic association with gastrointestinal disorders (rs6918045 chr 6, EA T vs NEA C): 0.55
Coefficient, genetic association with gastrointestinal disorders (rs6920905 chr 6, EA C vs NEA T): −0.628
HR (hazard ratio), genetic association with gastrointestinal disorders (rs6920905 chr 6, EA C vs NEA T): 0.53
Coefficient, genetic association with gastrointestinal disorders (rs7747013 chr 6, EA G vs NEA A): −0.600
HR (hazard ratio), genetic association with gastrointestinal disorders (rs7747013 chr 6, EA G vs NEA A): 0.55
Coefficient, genetic association with gastrointestinal disorders (rs7751771 chr 6, EA C vs NEA T): −0.598
HR (hazard ratio), genetic association with gastrointestinal disorders (rs7751771 chr 6, EA C vs NEA T): 0.55
Coefficient, genetic association with gastrointestinal disorders (rs7764937 chr 6, EA C vs NEA G): −0.599
HR (hazard ratio), genetic association with gastrointestinal disorders (rs7764937 chr 6, EA C vs NEA G): 0.55
HR, gastrointestinal disorders [9]: 2.4
coef, gastrointestinal disorders [9]: 0.8903
HR, gastrointestinal disorders [10]: 2.4
coef, gastrointestinal disorders [10]: 0.8865
HR, gastrointestinal disorders [11]: 2.4
coef, gastrointestinal disorders [11]: 0.8596
HR, gastrointestinal disorders [12]: 2.5
coef, gastrointestinal disorders [12]: 0.9034
HR, gastrointestinal disorders [13]: 2.4
coef, gastrointestinal disorders [13]: 0.8864
HR, gastrointestinal disorders [14]: 2.5
coef, gastrointestinal disorders [14]: 0.9034
Coefficient, genetic association with gastrointestinal disorders (rs9349955 chr 6, EA T vs NEA C): −0.633
HR (hazard ratio), genetic association with gastrointestinal disorders (rs9349955 chr 6, EA T vs NEA C): 0.53
Coefficient, genetic association with gastrointestinal disorders (rs9358044 chr 6, EA T vs NEA A): −0.610
HR (hazard ratio), genetic association with gastrointestinal disorders (rs9358044 chr 6, EA T vs NEA A): 0.54
Coefficient, genetic association with gastrointestinal disorders (rs9382993 chr 6, EA C vs NEA T): −0.636
HR (hazard ratio), genetic association with gastrointestinal disorders (rs9382993 chr 6, EA C vs NEA T): 0.53
HR, gastrointestinal disorders [15]: 2.4
coef, gastrointestinal disorders [15]: 0.8599
Coefficient, genetic association with gastrointestinal disorders (rs9476616 chr 6, EA G vs NEA C): −0.607
HR (hazard ratio), genetic association with gastrointestinal disorders (rs9476616 chr 6, EA G vs NEA C): 0.55
Coefficient, genetic association with gastrointestinal disorders [16]: 0.934
HR (hazard ratio), genetic association with gastrointestinal disorders [16]: 2.55
HR, gastrointestinal disorders [17]: 2.5
coef, gastrointestinal disorders [17]: 0.9342
HR, gastrointestinal disorders [18]: 2.5
coef, gastrointestinal disorders [18]: 0.902
HR, gastrointestinal disorders [19]: 2.4
coef, gastrointestinal disorders [19]: 0.8718
Coefficient, genetic association with gastrointestinal disorders [20]: −0.594
HR (hazard ratio), genetic association with gastrointestinal disorders [20]: 0.55
HR, gastrointestinal disorders [21]: 2.4
coef, gastrointestinal disorders [21]: 0.8843
HR, gastrointestinal disorders [22]: 2.4
coef, gastrointestinal disorders [22]: 0.8594
HR, gastrointestinal disorders [23]: 2.4
coef, gastrointestinal disorders [23]: 0.8895
Coefficient, genetic association with gastrointestinal disorders [24]: 0.917
HR (hazard ratio), genetic association with gastrointestinal disorders [24]: 2.50
HR, gastrointestinal disorders [25]: 2.5
coef, gastrointestinal disorders [25]: 0.9168
Coefficient, genetic association with gastrointestinal disorders [26]: 0.921
HR (hazard ratio), genetic association with gastrointestinal disorders [26]: 2.51
HR, gastrointestinal disorders [27]: 2.5
coef, gastrointestinal disorders [27]: 0.9206
Coefficient, genetic association with gastrointestinal disorders [28]: 0.921
HR (hazard ratio), genetic association with gastrointestinal disorders [28]: 2.51
HR, gastrointestinal disorders [29]: 2.5
coef, gastrointestinal disorders [29]: 0.9206
HR, gastrointestinal disorders [30]: 2.4
coef, gastrointestinal disorders [30]: 0.8657
HR, gastrointestinal disorders [31]: 2.4
coef, gastrointestinal disorders [31]: 0.8665
Coefficient, genetic association with gastrointestinal disorders [32]: −0.632
HR (hazard ratio), genetic association with gastrointestinal disorders [32]: 0.53
Coefficient, genetic association with gastrointestinal disorders [33]: 0.921
HR (hazard ratio), genetic association with gastrointestinal disorders [33]: 2.51
HR, gastrointestinal disorders [34]: 2.5
coef, gastrointestinal disorders [34]: 0.9207
Coefficient, genetic association with gastrointestinal disorders [35]: 0.917
HR (hazard ratio), genetic association with gastrointestinal disorders [35]: 2.50
HR, gastrointestinal disorders [36]: 2.5
coef, gastrointestinal disorders [36]: 0.9167
HR, gastrointestinal disorders [37]: 2.4
coef, gastrointestinal disorders [37]: 0.8656
HR, gastrointestinal disorders [38]: 2.4
coef, gastrointestinal disorders [38]: 0.8864
